Test results reported in ChEMBL document CHEMBL4699437, “New insights into ethionamide metabolism: influence of oxidized methionine on its degradation path” (RSC Med Chem, 2020).

Assay: Acid dissociation constant, pKa of the compound

pKa: 11.9
Compound: CCc1cc(C(N)=S)ccn1 [ETHIONAMIDE]
